Common to all, as to assay: biochemical
The target of test [1] is BRM (Isoform 2) Bromodomain (Homo sapiens, UniProt P51531). From the text:
IC50 measurements for inhibitors using BRM SM TR-FRET Binding Assay

Test [2] deals with Polybromodomain-1 BromoDomain-5 (PB1-BD5) (Homo sapiens, UniProt Q86U86). From the text:
IC50 measurements for inhibitors using Polybromodomain-1 BromoDomain-5 (PB1-BD5) SM TR-FRET Binding Assay

The target of another test is BRG1 (Homo sapiens, UniProt P51532). Type of test: binding. As to conditions: BRG1 HTRF IC50 (µM). The text has this:
IC50 measurements for inhibitors using BRG1 TR-FRET Binding Assay

IC50 data for 23 compounds are collected here from EP3262036B1, “THERAPEUTIC PYRIDAZINE COMPOUNDS AND USES THEREOF” (priority 2015, dated 2016).

Structures are written as SMILES.

BRM (Isoform 2) Bromodomain, sequence (P51531 1377-1486 isoform P51531-2): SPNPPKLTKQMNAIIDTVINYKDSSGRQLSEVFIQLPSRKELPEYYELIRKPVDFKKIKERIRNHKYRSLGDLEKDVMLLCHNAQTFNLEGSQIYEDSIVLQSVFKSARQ
Polybromodomain-1 BromoDomain-5 (PB1-BD5), sequence (Q86U86 645-766): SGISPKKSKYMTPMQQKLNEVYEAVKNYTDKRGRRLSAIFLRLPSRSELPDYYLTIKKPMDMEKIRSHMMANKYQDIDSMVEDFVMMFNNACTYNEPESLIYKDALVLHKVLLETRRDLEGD
BRG1, sequence (P51532 1448-1575): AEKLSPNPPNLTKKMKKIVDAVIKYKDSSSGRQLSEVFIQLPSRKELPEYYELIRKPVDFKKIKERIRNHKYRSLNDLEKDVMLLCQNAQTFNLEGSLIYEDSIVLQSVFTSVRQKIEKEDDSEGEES

For orientation: IC50 means the concentration that inhibits the measured activity by half. For `CC1CN(c2cc(-c3ccccc3O)nnc2N)CC(C)O1` (racemic) [Example 33, 2-(6-amino-5-(2,6-dimethylmorpholino)pyridazin-3-yl)phenol], the IC50 in test [1] was 0.0696 µM; in test [2] it was 0.024 µM.

For the compound `CC(=O)N1CCN(c2cc(-c3ccccc3O)nnc2N)CC1` [Example 4, 1-(4-(3-amino-6-(2-hydroxyphenyl)pyridazin-4-yl)piperazin-1-yl)ethan-1-one], the half-inhibitory concentration (IC50) at BRG1 turned out to be 0.0659 µM; in test [1], 0.0717 µM; in test [2], 0.0246 µM.

Regarding `CN(C)CC1CCN(c2cc(-c3ccccc3O)nnc2N)CC1` [Example 5, 2-(6-amino-5-(4-((dimethylamino)methyl)piperidin-1-yl)pyridazin-3-yl)phenol], the results for the IC50 (against BRG1; in test [1]) were 0.0395 µM and 0.0225 µM, respectively.

Take `Nc1nnc(-c2ccccc2O)cc1N1C[C@H]2CN(Cc3ccccc3)C[C@H]2C1` [Example 9, 2-(6-amino-5-((3aR,6aS)-5-benzylhexahydropyrrolo[3,4-c]pyrrol-2(1H)-yl)pyridazin-3-yl)phenol]: the IC50 amounted to 0.0615 µM against BRG1, 0.0476 µM in test [1] and 0.0182 µM in test [2].

Turning to `CC(c1ccccc1)N1CCN(c2cc(-c3ccccc3O)nnc2N)CC1` (stereo not shown) [Example 15, 2-(6-amino-5-(4-(1-phenylethyl)piperazin-1 - yl)pyridazin-3-yl)phenol], the IC50 turned out to be 0.0361 µM in test [1] and 0.0245 µM in test [2].

For `Nc1nnc(-c2ccccc2O)cc1N1CC2CCC(C1)N2Cc1ccccc1` [Example 16, 2-(6-amino-5-(8-benzyl-3,8-diazabicyclo[3.2.1]octan-3-yl)pyridazin-3-yl)phenol], the IC50 came out at 0.0563 µM against BRG1, 0.079 µM in test [1] and 0.0513 µM in test [2].

Regarding `Nc1nnc(-c2ccccc2O)cc1N1CCOCC1` [Example 45, 2-(6-amino-5-morpholinopyridazin-3-yl)phenol], the IC50 at BRG1 is 0.101 µM; in test [1], 0.0715 µM; in test [2], 0.0209 µM.

Consider `Nc1nnc(-c2ccccc2O)cc1N1CC(Oc2ccccc2)C1` [Example 57, 2-(6-amino-5-(3-phenoxyazetidin-1-yl)pyridazin-3-yl)phenol], for which the IC50 at BRG1 was 0.0177 µM; in test [1] it was 0.0356 µM.

For `CC1CN(c2cc(-c3ccccc3O)nnc2N)CCN1C(=O)C(C)(C)C` (stereo not shown) [Example 129, 1-(4-(3-amino-6-(2-hydroxyphenyl)pyridazin-4-yl)-2-methylpiperazin-1-yl)-2,2-dimethylpropan-1-one], the results for the 50% inhibitory concentration (IC50) (against BRG1; in test [1]; in test [2]) were 0.0104 µM, 0.0184 µM and 0.0068 µM, respectively.

`CC(Oc1cc(-c2ccccc2O)nnc1N)C1CCOCC1` (stereo not shown) [Example 168, 2-(6-amino-5-(1-(tetrahydro-2H-pyran-4-yl)ethoxy)pyridazin-3-yl)phenol]: the IC50 against BRG1 came to 0.169 µM; in test [1], 0.197 µM; in test [2], 0.113 µM.

Take `C[C@H](Oc1cc(-c2ccccc2O)nnc1N)c1ccccc1` [Example 170, (S)-2-(6-amino-5-(1-phenylethoxy)pyridazin-3-yl)phenol]: the IC50 in test [1] was found to be 0.0149 µM; in test [2], 0.0096 µM.

As to `CN(C)CCOc1cc(-c2ccccc2O)nnc1N` [Example 173, 2-(6-amino-5-(2-(dimethylamino)ethoxy)pyridazin-3-yl)phenol], the results for the IC50 (against BRG1; in test [1]; in test [2]) were 0.263 µM, 0.276 µM and 0.257 µM, respectively.

`Nc1nnc(-c2ccccc2O)cc1OCCc1ccccc1` [Example 174, 2-(6-amino-5-phenethoxypyridazin-3-yl)phenol]: the IC50 on BRG1 worked out at 0.0148 µM; in test [1], 0.019 µM; in test [2] it was 0.0088 µM.

Regarding `CC(Cc1ccccc1)Oc1cc(-c2ccccc2O)nnc1N` (stereo not shown) [Example 177, 2-(6-amino-5-((1-phenylpropan-2-yl)oxy)pyridazin-3-yl)phenol], the IC50 at BRG1 stood at 0.1 µM; in test [1] it was 0.0925 µM; in test [2], 0.0292 µM.

On to `CC(COc1cc(-c2ccccc2O)nnc1N)c1ccccc1` (stereo not shown) [Example 178, 2-(6-amino-5-(2-phenylpropoxy)pyridazin-3-yl)phenol], for which the IC50 at BRG1 is 0.0122 µM; in test [1], 0.0072 µM; in test [2], 0.0053 µM.

Take `Nc1nnc(-c2ccccc2O)cc1OC1CCN(Cc2ccccc2)C1` (stereo not shown) [Example 180, 2-(6-amino-5-((1-benzylpyrrolidin-3-yl)oxy)pyridazin-3-yl)phenol]: the IC50 was 0.0432 µM on BRG1, 0.0597 µM in test [1] and 0.0439 µM in test [2].

In the case of `Cn1cc(-c2cc(-c3ccccc3O)nnc2N)cn1` [Example 187, 2-(6-amino-5-(1-methyl-1H-pyrazol-4-yl)pyridazin-3-yl)phenol], the IC50 in test [1] turned out to be 0.01 µM; in test [2], 0.0037 µM.

With `CC(c1ccccc1)n1cc(-c2cc(-c3ccccc3O)nnc2N)cn1` (stereo not shown) [Example 188, 2-(6-amino-5-(1-(1-phenylethyl)-1H-pyrazol-4-yl)pyridazin-3-yl)phenol], the results for the IC50 in test [1] and in test [2] were 0.0057 µM and 0.0025 µM, respectively.

On to `CN(C)Cc1ccc(-c2cc(-c3ccccc3O)nnc2N)cc1` [Example 189, 2-(6-amino-5-(4-((dimethylamino)methyl)phenyl)pyridazin-3-yl)phenol], for which the concentration for half-maximal inhibition (IC50) against BRG1 came out at 0.0222 µM; in test [1], 0.0493 µM; in test [2], 0.0288 µM.

`CNc1ccc(-c2ccccc2O)nn1` [Example 204, 2-(6-(methylamino)pyridazin-3-yl)phenol]: the IC50 worked out at 0.893 µM on BRG1, 1.04 µM in test [1] and 0.349 µM in test [2].

For `Nc1nnc(-c2ccccc2O)cc1C1CCCC1` [Example 210, 2-(6-amino-5-cyclopentylpyridazin-3-yl)phenol], the IC50 against BRG1 was determined as 0.0239 µM; in test [1], 0.025 µM; in test [2], 0.0149 µM.

Turning to `Nc1nnc(-c2ccccc2O)cc1C1CCN(S(=O)(=O)c2ccccc2)C1` (stereo not shown) [Example 217, 2-(6-amino-5-(1-(phenylsulfonyl)pyrrolidin-3-yl)pyridazin-3-yl)phenol], the IC50 was 0.412 µM against BRG1, 0.466 µM in test [1] and 0.268 µM in test [2].

For the compound `Nc1nnc(-c2ccccc2O)cc1C1CCN(Cc2ccccc2)CC1` [Example 218, 2-(6-amino-5-(1-benzylpiperidin-4-yl)pyridazin-3-yl)phenol], the IC50 against BRG1 worked out at 0.0553 µM; in test [2], 0.0448 µM.
